We go through five molecules from patent US4963655A, “Boron analogs of amino acid/peptide protease inhibitors” (Mayo Foundation for Medical Education and Research, priority 1988, dated 1990).

In series [1] the test system is Human melanoma cells (A375). The series can be described thus: Growth Inhibition Assay. Format: cell-based. The note with it: for Growth Inhibition (%) 24 hr: counted after 24 hr growth; for Growth Inhibition (%) 48 hr: counted after 48 hr growth; for Growth Inhibition (%) 96 hr: counted after 96 hr growth; for % Inhib (growth): 96 h exposure, fresh inhibitor every 24 h; for growth inhibitory activity (in words): other serine protease inhibitors, Table 2. The protocol: Human melanoma cells (A375) were seeded at 2 ×10^4 cells per tissue culture dish (60×15 mm, Falcon) in Delbecco's Minimal Essential Media (DMEM) containing 10% fetal calf serum and including 1% antibiotics. Cells were allowed to attach for 48 hours prior to exposure to drugs. Cbz-ala-1-borovaline and Cbz-ala-1-borophenylalanine were dissolved in dimethyl sulfoxide (DMSO). The final DMSO concentration in media was 0.5%. Fresh media was exchanged for the media including the drug at appropriate exposure times. Cells were counted after 24, 48 or 96 hours of growth using a Coulter counter. Growth inhibition is expressed as the percent reduction of drug treated cells with respect to untreated control cells.

Series [2] deals with Human melanoma cells (A375). Kind of series: Colony Formation Assay (CFA). Format: cell-based. The method, then:
Human melanoma cells (A375) were seeded at 500 cells per tissue culture dish and allowed to recover for 48 hours. The drug and media mixture was prepared as described above. Following drug exposure, fresh media were substituted for the drug and media mixture. After 7 days, colonies were stained with 0.25% Coomassie Blue and enumerated. Data are expressed as the percent of colonies present in treated plates with respect to control plates (percent survival).

The subject of series [3] is A375 cells. The series can be described thus: Macromolecular synthesis: protein synthesis ([3H]-leucine incorporation). The note with it: 0.075 ug/ml. In kind it is cell-based, human. The method, then: Protein synthesis was determined by the incorporation of [^3 H]-leucine into protein in viable cells.
Human melanoma (A375) cells were seeded at 1 ×10^5 cells per tissue culture dish 48 hours prior to the addition of the drug (for example, Cbz-ala-1borovaline or Cbz-ala-1-borophenylalanine). The drug and media mixture was prepared as described above. During the last 30 minutes of drug exposure radioactive labeled precursors were added to the media and drug mixture. Specifically, either ^3 H-thymidine (0.2 uCi/ml, to measure DNA synthesis), ^3 H-uridine (0.2 uCi/ml, to measure RNA synthesis, or ^3 H-leucine (1 uCi/ml, to measure protein synthesis) were added. Following 30 minutes at 37° C., the cells were harvested, resuspended in physiological buffered saline (PBS) and the cells counted. An aliquot of the cell suspension was then lysed (10 mM Tris, 1 mM EDTA, 0.1% SDS) and macromolecules were precipitated with ice-cold trichloroacetic acid (TCA) (20%). Following three washes with TCA, radioactivity in the resulting pellet was counted on a Beckman LS2000 Scintillation Counter. Data is expressed as the percentage of counts incorporated into 1×10^6 treated cells as compared to 1×10^6 untreated cells (percent incorporation).

Series [4] has as its system human lung carcinoma (A549) cells. Kind of series: Growth and colony formation of A549 cells in culture. In kind it is cell-based. An excerpt:
Qualitatively similar results were obtained against human lung carcinoma (A549) cells in culture (data not shown). […] The plateau, however, was not observed in association with the analog after the 1-hour (FIG. 3A) or continuous (FIG. 3C) exposure times. A similar plateau was never observed with Cbz-ala-1-borophenylalanine treatment. A plateau was also seen with A549 cells. A growth inhibition assay (Table 1) yielded qualitatively similar results as the colony formation assay.

Series [5] has as its system Lewis lung murine tumor cells. The note with it: Lewis lung murine tumor cells in culture; Goz et al.; cited from earlier work.
Series [6] relates to L1210 murine leukemia cells. Kind of series: Growth inhibition of L1210 cells in culture. In kind it is cell-based. The note with it: 72-hour exposure, 0.03 uM. The protocol: Following a 72-hour exposure to 0.03 uM ala-1-borovaline, approximately 50% growth inhibition was observed. The two compounds are also cytotoxic to human tumor cell lines. While not yet fully understood, the mechanism of cytotoxicity is not via macromolecular synthesis inhibition in the human tumor cell lines.

In the case of `CC(NC(=O)OCc1ccccc1)C(=O)NC(Cc1ccccc1)B(O)O` (centres unmarked) [Cbz-ala-1-Borophenylalanine, Cbz-ala-1-borophenylalanine], the growth inhibition in series [1] (0.075 ug/ml, 24-hour exposure) came to 70%. The “Growth Inhibition (%) 24 hr” value in series [1] (exposure 1 h, 51.6 uM) was determined as 20%; in series [1] (exposure 1 h, 129 uM), 42%; in series [1] (exposure 24 h, .026 uM), 5%; in series [1] (exposure 24 h, .129 uM) it was 41%; in series [1] (exposure 24 h, .645 uM) it was 75%; in series [1] (exposure 96 h, .1239 uM) it was 38%. Further, the “Growth Inhibition (%) 24 hr” value in series [1] (exposure 96 h, .258 uM) came out at 58%. Moreover, the “Growth Inhibition (%) 48 hr” value turned out to be 41% in series [1] (exposure 1 h, 51.6 uM); 65% in series [1] (exposure 1 h, 129 uM); 3% in series [1] (exposure 24 h, .026 uM); 63% in series [1] (exposure 24 h, .129 uM); 72% in series [1] (exposure 24 h, .645 uM); 68% in series [1] (exposure 96 h, .1239 uM). Also, the “Growth Inhibition (%) 48 hr” value in series [1] (exposure 96 h, .258 uM) is given as 91%. Also, the “Growth Inhibition (%) 96 hr” value is reported as 52% in series [1] (exposure 1 h, 51.6 uM); 69% in series [1] (exposure 1 h, 129 uM); 15% in series [1] (exposure 24 h, .026 uM); 68% in series [1] (exposure 24 h, .129 uM); 98% in series [1] (exposure 24 h, .645 uM); 75% in series [1] (exposure 96 h, .1239 uM). For the same molecule, in series [1] (exposure 96 h, .258 uM), the “Growth Inhibition (%) 96 hr” value is recorded as 95%. Moreover, the “Colony Formation Inhibition (%)” value in series [2] (exposure 1 h, 51.6 uM) turned out to be 55%; in series [2] (exposure 24 h, .026 uM), 10%; in series [2] (exposure 24 h, .129 uM), 35%; in series [2] (exposure 24 h, .645 uM), 97%. In series [3], the “inhibition of protein synthesis” value is “did not show an acute inhibition of protein synthesis”. For the same molecule, in series [4], the “inhibition of growth and colony formation (in words)” value is given as “effective inhibitors”. Also, the “cytotoxicity (in words)” value in series [5] is reported as “modest activity”.

For `CC(NC(=O)OCc1ccccc1)C(=O)NC(B(O)O)C(C)C` (centres unmarked) [Cbz-ala-1-Borovaline, Cbz-ala-1-borovaline], the “Growth Inhibition (%) 24 hr” value in series [1] (exposure 1 h, 7.36 uM) stood at 14%; in series [1] (exposure 1 h, 29.43 uM) it was 23%; in series [1] (exposure 24 h, 1.47 uM), 61%; in series [1] (exposure 24 h, .003 uM), 5%; in series [1] (exposure 24 h, .029 uM), 17%; in series [1] (exposure 96 h, .029 uM) it was 21%. For the same molecule, in series [1] (exposure 96 h, .736 uM), the “Growth Inhibition (%) 24 hr” value worked out at 53%. Moreover, the “Growth Inhibition (%) 48 hr” value in series [1] (exposure 1 h, 7.36 uM) is given as 33%; in series [1] (exposure 1 h, 29.43 uM) it was 48%; in series [1] (exposure 24 h, 1.47 uM), 88%; in series [1] (exposure 24 h, .003 uM) it was 5%; in series [1] (exposure 24 h, .029 uM), 50%; in series [1] (exposure 96 h, .029 uM), 51%. Further, the “Growth Inhibition (%) 48 hr” value in series [1] (exposure 96 h, .736 uM) worked out at 78%. Moreover, the “Growth Inhibition (%) 96 hr” value is recorded as 46% in series [1] (exposure 1 h, 7.36 uM); 73% in series [1] (exposure 1 h, 29.43 uM); 93% in series [1] (exposure 24 h, 1.47 uM); 14% in series [1] (exposure 24 h, .003 uM); 68% in series [1] (exposure 24 h, .029 uM); 68% in series [1] (exposure 96 h, .029 uM). Further, the “Growth Inhibition (%) 96 hr” value in series [1] (exposure 96 h, .736 uM) came to 89%. The “inhibition of colony formation, comparison of potency (in words)” value in series [2] (FIG. 3) is recorded as “more potent inhibitor of colony formation than was Cbz-ala-1-borophenylalanine”. Besides, the “Colony Formation Inhibition (%)” value in series [2] (exposure 1 h, 7.36 uM) was 41%; in series [2] (exposure 1 h, 29.43 uM), 87%; in series [2] (exposure 24 h, 1.47 uM), 87%; in series [2] (exposure 24 h, .003 uM), 5%; in series [2] (exposure 24 h, .029 uM), 43%. Besides, in series [6], the growth inhibition result is “approximately 50%”. In addition, the “inhibition of growth and colony formation (in words)” value in series [4] is on record as “effective inhibitors”.

For the molecule Aprotinin [reference compound], the “% Inhib (growth)” value in series [1] (1.54 uM), in series [1] (15.4 uM), in series [1] (.015 uM) and in series [1] (.154 uM) was 0% each time. In addition, the “growth inhibitory activity (in words)” value in series [1] is “Negligible growth inhibition”.

With “N-tosylphenylalanine chloromethyl ketone [TPCK, reference compound]”, the “% Inhib (growth)” value in series [1] (2.84 uM) amounted to 42%; in series [1] (28.4 uM), 100%; in series [1] (142 uM), 100%; in series [1] (284 uM), 100%; in series [1] (.028 uM), 5%; in series [1] (.284 uM), 9%. Moreover, the “growth inhibitory activity (in words)” value in series [1] was “inhibited growth at very high concentrations”.

B1: Ovomucoid: serine protease inhibitor (protein, UniProt P01005 25-210, looked up)
Ovomucoid: AEVDCSRFPNATDKEGKDVLVCNKDLRPICGTDGVTYTNDCLLCAYSIEFGTNISKEHDGECKETVPMNCSSYANTTSEDGKVMVLCNRAFNPVCGTDGVTYDNECLLCAHKVEQGASVDKRHDGGCRKELAAVSVDCSEYPKPDCTAEDRPLCGSDNKTYGNKCNFCNAVVESNGTLTLSHFGKC
On to B1, for which the “% Inhib (growth)” value is listed as 0% in series [1] (3.57 uM); 0% in series [1] (17.9 uM); 5% in series [1] (89.3 uM); 0% in series [1] (.004 uM); 0% in series [1] (.036 uM); 1% in series [1] (.357 uM). The “growth inhibitory activity (in words)” value in series [1] was “Negligible growth inhibition”.
